The source of these data is patent US20250127801A1, “BRIDGED TRICYCLIC CARBAMOYLPYRIDONE COMPOUNDS AND USES THEREOF” (priority 2023, published 2025).

One data set is described as follows: in vitro. The note with it: human; for CC50 at 5 days: uninfected MT-4 cells.
A further data set is described as follows: physchem. To be noted: 23 °C, thermodynamic from solid; for solubility thermodynamic: fassif; for solubility thermodynamic at 24 h: FaSSIF.
The next data set deals with HIV-1 (IIIB). Kind of data set: microbe, parasite or virus in culture. The class given is cell-based.
The mark [1] stands for this setting: Human immunodeficiency virus 1, IIIB, MT4, 120 h, read-out: MT4 EC50 (nM).
[2] abbreviates: Human immunodeficiency virus 1, MT4, 120 h, HIV-1 (IIIB) replication in MT-4 cells, 5 days incubation, Cell Titer Glo, read-out: MT4 EC50.

≈ marks a conversion by molar mass, not a printed value. Read-outs that look alike come from different tables or passages of the source.

For `CC1=NO[C@@]2(CC[C@H](C)N3C[C@H]2n2cc(C(=O)NCc4ccc(F)cc4F)c(=O)c(OCOC(=O)CC(C)(C)c4c(CC(=O)O)cc(C)cc4OP(=O)(O)O)c2C3=O)C1` [Compound 20, 2-(2-(4-((((3′S,5S,7′R)-10′-((2,4-difluorobenzyl)carbamoyl)-3,3′-dimethyl-1′,11′-dioxo-1′,4′,5′,11′-tetrahydro-3′H,4H,7′H-spiro[isoxazole-5,6′-[2,7]methanopyrido[1,2-a][1,4]diazonin]-12′-yl)oxy)methoxy)-2-methyl-4-oxobutan-2-yl)-5-methyl-3-(phosphonooxy)phenyl)acetic acid], the CC50 in the data set “in vitro” came out at 12500 nM. Further, the thermodynamic solubility in “physchem” was found to be 4410 µg/mL (≈ 5.22 mM). In addition, the EC50 with HIV-1 (IIIB) (setting [1]) was determined as 1.76 nM.
For `CC1=NO[C@@]2(CC[C@H](C)N3C[C@H]2n2cc(C(=O)NCc4ccc(F)cc4F)c(=O)c(OC(=O)N(C)c4ncccc4CN(CCO)C(=O)OCOP(=O)(O)O)c2C3=O)C1` [Compound 35, (phosphonooxy)methyl ((2-(((((3′S,5S,7′R)-10′-((2,4-difluorobenzyl)carbamoyl)-3,3′-dimethyl-1′,11′-dioxo-1′,4′,5′,11′-tetrahydro-3′H,4H,7′H-spiro[isoxazole-5,6′-[2,7]methanopyrido[1,2-a][1,4]diazonin]-12′-yl)oxy)carbonyl)(methyl)amino)pyridin-3-yl)methyl)(2-hydroxyethyl)carbamate], in that order: 11600 nM, 4460 µg/mL (≈ 5.26 mM) and 2.04 nM.
Regarding `CC1=NO[C@@]2(CC[C@H](C)N3C[C@H]2n2cc(C(=O)NCc4ccc(F)cc4F)c(=O)c(OCOC(=O)N(C)c4ncccc4COC(=O)[C@@H](N)C(C)C)c2C3=O)C1` [Compound 12, (2-((((((3′S,5S,7′R)-10′-((2,4-difluorobenzyl)carbamoyl)-3,3′-dimethyl-1′,11′-dioxo-1′,4′,5′,11′-tetrahydro-3′H,4H,7′H-spiro[isoxazole-5,6′-[2,7]methanopyrido[1,2-a][1,4]diazonin]-12′-yl)oxy)methoxy)carbonyl)(methyl)amino)pyridin-3-yl)methyl L-valinate], the CC50 at 5 days in the data set “in vitro” is 14600 nM. Moreover, the thermodynamic solubility at 24 h in “physchem” turned out to be 2700 µg/mL (≈ 3.47 mM). The EC50 in the data set on HIV-1 (IIIB) (setting [2]) was determined as 4.33 nM.
`CC1=NO[C@@]2(CC[C@H](C)N3C[C@H]2n2cc(C(=O)NCc4ccc(F)cc4F)c(=O)c(OC(=O)OCCC(C)(C)c4c(CC(=O)O)cc(C)cc4OP(=O)(O)O)c2C3=O)C1` [Compound 25, 2-(2-(4-(((((3′S,5S,7′R)-10′-((2,4-difluorobenzyl)carbamoyl)-3,3′-dimethyl-1′,11′-dioxo-1′,4′,5′,11′-tetrahydro-3′H,4H,7′H-spiro[isoxazole-5,6′-[2,7]methanopyrido[1,2-a][1,4]diazonin]-12′-yl)oxy)carbonyl)oxy)-2-methylbutan-2-yl)-5-methyl-3-(phosphonooxy)phenyl)acetic acid] gave a CC50 in the data set “in vitro” of 11600 nM. This compound also yielded a thermodynamic solubility in “physchem” of 4760 µg/mL (≈ 5.63 mM). Moreover, the EC50 in the data set with HIV-1 (IIIB) (setting [1]) stood at 1.43 nM.
Turning to `CC1=NO[C@@]2(CC[C@H](C)N3C[C@H]2n2cc(C(=O)NCc4ccc(F)cc4F)c(=O)c(OCOC(=O)N(C)c4ncccc4CN(CC(=O)O)C(=O)OCOP(=O)(O)O)c2C3=O)C1` [Compound 7, N-((2-((((((3′S,5S,7′R)-10′-((2,4-difluorobenzyl)carbamoyl)-3,3′-dimethyl-1′,11′-dioxo-1′,4′,5′,11′-tetrahydro-3′H,4H,7′H-spiro[isoxazole-5,6′-[2,7]methanopyrido[1,2-a][1,4]diazonin]-12′-yl)oxy)methoxy)carbonyl)(methyl)amino)-pyridin-3-yl)methyl)-N-(((phosphonooxy)methoxy)carbonyl)glycine], the CC50 at 5 days in the data set “in vitro” was found to be 10800 nM. The solubility (thermodynamic) at 24 h in the data set “physchem” amounted to 4660 µg/mL (≈ 5.22 mM). Further, the EC50 in the data set with HIV-1 (IIIB) (setting [2]) amounted to 1.48 nM.
Regarding `CC1=NO[C@@]2(CC[C@H](C)N3C[C@H]2n2cc(C(=O)NCc4ccc(F)cc4F)c(=O)c(OCOC(=O)OCc4ccncc4OP(=O)(O)O)c2C3=O)C1` [Compound 72, (((3′S,5S,7′R)-10′-((2,4-difluorobenzyl)carbamoyl)-3,3′-dimethyl-1′,11′-dioxo-1′,4′,5′,11′-tetrahydro-3′H,4H,7′H-spiro[isoxazole-5,6′-[2,7]methanopyrido[1,2-a][1,4]diazonin]-12′-yl)oxy)methyl ((3-(phosphonooxy)pyridin-4-yl)methyl) carbonate], the CC50 in the data set “in vitro” came to 11200 nM. Also, the solubility (thermodynamic) in the data set “physchem” is 2560 µg/mL (≈ 3.42 mM). Also, the concentration for a half-maximal effect (EC50) in the data set on HIV-1 (IIIB) (setting [1]) is 1.34 nM.
In turn, `CC1=NO[C@@]2(CC[C@H](C)N3C[C@H]2n2cc(C(=O)NCc4ccc(F)cc4F)c(=O)c(OCOC(=O)O[C@H]4CCCC[C@@H]4OP(=O)(O)O)c2C3=O)C1` [Compound 44, (((3′S,5S,7′R)-10′-((2,4-difluorobenzyl)carbamoyl)-3,3′-dimethyl-1′,11′-dioxo-1′,4′,5′,11′-tetrahydro-3′H,4H,7′H-spiro[isoxazole-5,6′-[2,7]methanopyrido[1,2-a][1,4]diazonin]-12′-yl)oxy)methyl ((1S,2S)-2-(phosphonooxy)cyclohexyl) carbonate] returned a CC50 at 5 days in “in vitro” of 13500 nM. The compound also displayed a solubility (thermodynamic) at 24 h in the data set “physchem” of 4440 µg/mL (≈ 6.01 mM). In addition, the EC50 in the data set on HIV-1 (IIIB) (setting [2]) was determined as 1.8 nM.
Consider `CC1=NO[C@@]2(CC[C@H](C)N3C[C@H]2n2cc(C(=O)NCc4ccc(F)cc4F)c(=O)c(OCOC(=O)N(C)Cc4ccccc4OP(=O)(O)O)c2C3=O)C1` [Compound 37, (((3′S,5S,7′R)-10′-((2,4-difluorobenzyl)carbamoyl)-3,3′-dimethyl-1′,11′-dioxo-1′,4′,5′,11′-tetrahydro-3′H,4H,7′H-spiro[isoxazole-5,6′-[2,7]methanopyrido[1,2-a][1,4]diazonin]-12′-yl)oxy)methyl methyl(2-(phosphonooxy)benzyl)carbamate], for which, in “in vitro”, the CC50 worked out at 33500 nM. The same compound displayed a solubility (thermodynamic) in the data set “physchem” of 4500 µg/mL (≈ 5.92 mM). Also, in the data set on HIV-1 (IIIB) (setting [1]), the EC50 was determined as 13.3 nM.
Regarding `CCCCCCCCCCCCCC(=O)Oc1ccc(CC(=O)Oc2c3n(cc(C(=O)NCc4ccc(F)cc4F)c2=O)[C@@H]2CN(C3=O)[C@@H](C)CC[C@]23CC(C)=NO3)cc1` [Compound 96, [4-[2-[(1R,10S,13S)-4-[(2,4-difluorophenyl)methylcarbamoyl]-3′,10-dimethyl-5,8-dioxo-spiro[2,9-diazatricyclo[7.4.1.02,7]tetradeca-3,6-diene-13,5′-4H-isoxazole]-6-yl]oxy-2-oxo-ethyl]phenyl] tetradecanoate], the CC50 at 5 days in the data set “in vitro” is ≥ 50000 nM. In “physchem”, this compound registered a solubility (thermodynamic) at 24 h of 13.5 µg/mL (≈ 0.0162 mM). Moreover, the concentration giving a half-maximal response (EC50) with HIV-1 (IIIB) (setting [2]) was 2.26 nM.
In turn, `CC1=NO[C@@]2(CC[C@H](C)N3C[C@H]2n2cc(C(=O)NCc4ccc(F)cc4F)c(=O)c(OCc4ccccc4OP(=O)(O)O)c2C3=O)C1` [Compound 69, 2-((((3′S,5S,7′R)-10′-((2,4-difluorobenzyl)carbamoyl)-3,3′-dimethyl-1′,11′-dioxo-1′,4′,5′,11′-tetrahydro-3′H,4H,7′H-spiro[isoxazole-5,6′-[2,7]methanopyrido[1,2-a][1,4]diazonin]-12′-yl)oxy)methyl)phenyl dihydrogen phosphate] showed a CC50 in “in vitro” of 14100 nM. The same compound gave a solubility (thermodynamic) in “physchem” of 5140 µg/mL. The concentration giving a half-maximal response (EC50) in the data set on HIV-1 (IIIB) (setting [1]) was 1.78 nM.
Compound `CC1=NO[C@@]2(CC[C@H](C)N3C[C@H]2n2cc(C(=O)NCc4ccc(F)cc4F)c(=O)c(OCOC(=O)O[C@H]4CCCC[C@H]4OP(=O)(O)O)c2C3=O)C1` [Compound 51, (((3′S,5S,7′R)-10′-((2,4-difluorobenzyl)carbamoyl)-3,3′-dimethyl-1′,11′-dioxo-1′,4′,5′,11′-tetrahydro-3′H,4H,7′H-spiro[isoxazole-5,6′-[2,7]methanopyrido[1,2-a][1,4]diazonin]-12′-yl)oxy)methyl ((1S,2R)-2-(phosphonooxy)cyclohexyl) carbonate] gave a CC50 at 5 days in the data set “in vitro” of 21200 nM. This compound also showed a thermodynamic solubility at 24 h in “physchem” of 4400 µg/mL (≈ 5.95 mM). Moreover, the EC50 with HIV-1 (IIIB) (setting [2]) stood at 2 nM.
For the compound `CNCC(=O)OCc1cccnc1N(C)C(=O)OCOc1c2n(cc(C(=O)NCc3ccc(F)cc3F)c1=O)[C@@H]1CN(C2=O)[C@@H](C)CC[C@]12CC(C)=NO2` [Compound 9, (2-((((((3′S,5S,7′R)-10′-((2,4-difluorobenzyl)carbamoyl)-3,3′-dimethyl-1′11′-dioxo-1′,4′,5′,11′-tetrahydro-3′H,4H,7′H-spiro[isoxazole-5,6′-[2,7]methanopyrido[1,2-a][1,4]diazonin]-12′-yl)oxy)methoxy)carbonyl)(methyl)amino)pyridin-3-yl)methyl methylglycinate], the CC50 at 5 days in “in vitro” was 10500 nM. In “physchem”, this compound registered a solubility (thermodynamic) at 24 h of 3240 µg/mL (≈ 4.3 mM). Also, in the data set with HIV-1 (IIIB) (setting [2]), the EC50 is 1.4 nM.
For `CC1=NO[C@@]2(CC[C@H](C)N3C[C@H]2n2cc(C(=O)NCc4ccc(F)cc4F)c(=O)c(OCOC(=O)[C@H]4[C@@H](COP(=O)(O)O)[C@@H]4C(=O)O)c2C3=O)C1` [Compound 79, (1S,2S,3S)-2-(((((3′S,5S,7′R)-10′-((2,4-difluorobenzyl)carbamoyl)-3,3′-dimethyl-1′,11′-dioxo-1′,4′,5′,11′-tetrahydro-3′H,4H,7′H-spiro[isoxazole-5,6′-[2,7]methanopyrido[1,2-a][1,4]diazonin]-12′-yl)oxy)methoxy)carbonyl)-3-((phosphonooxy)methyl)cyclopropane-1-carboxylic acid], in that order: 12500 nM, 4520 µg/mL (≈ 6.11 mM) and 2.23 nM.
For `CC1=NO[C@@]2(CC[C@H](C)N3C[C@H]2n2cc(C(=O)NCc4ccc(F)cc4F)c(=O)c(OC(=O)N(C)c4ncc(C(=O)N[C@@H](CC(=O)O)C(=O)O)cc4COP(=O)(O)O)c2C3=O)C1` [Compound 84, (6-(((((3′S,5S,7′R)-10′-((2,4-difluorobenzyl)carbamoyl)-3,3′-dimethyl-1′,11′-dioxo-1′,4′,5′,11′-tetrahydro-3′H,4H,7′H-spiro[isoxazole-5,6′-[2,7]methanopyrido[1,2-a][1,4]diazonin]-12′-yl)oxy)carbonyl)(methyl)amino)-5-((phosphonooxy)methyl)nicotinoyl)-L-aspartic acid], the CC50 in the data set “in vitro” was ≥ 50000 nM. In the data set “physchem”, this compound showed a thermodynamic solubility of 5580 µg/mL (≈ 6.27 mM). In addition, in the data set with HIV-1 (IIIB) (setting [1]), the EC50 worked out at 38 nM.
